In US20230017045A1, “PYRIDINE AND PYRIMIDINE CARBOXYLATE HERBICIDES AND METHODS OF USE THEREOF” (Dow AgroSciences LLC, priority 2017, published 2023) one finds pest or weed control data, which are given here for 8 compounds.

Like-named read-outs stand apart in the source and are kept apart here.

The experiment concerns test plant species. The experiment can be described thus: Post-emergent herbicidal activity test (greenhouse, foliar spray, visual growth reduction). Type of experiment: in vivo. The settings on record: post-emergence, 336 h, 140 g ai/ha, 14 days after application. In outline:
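Scoring used a 0 to 100 percent visual scale of growth reduction against solvent-treated controls, read 14 d after spraying. Applications went onto plants at first or second true leaf stage, 187 L/ha, with crop oil concentrate and X-77 surfactant in the carrier. Post-treatment watering was by subirrigation to avoid wash-off.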

The mark [1] stands for this setting: ALOMY: blackgrass (Alopecurus myosuroides), read-out: Visual Growth Reduction (%) 14 Days After Application, ALOMY.
Setting [2] is: AMARE: redroot pigweed (Amaranthus retroflexus), read-out: Visual Growth Reduction (%) 14 Days After Application, AMARE.
The mark [3] stands for this setting: AVEFA: wild oat (Avena fatua), read-out: Visual Growth Reduction (%) 14 Days After Application, AVEFA.
The mark [4] stands for this setting: CHEAL: lambsquarters (Chenopodium album), read-out: Visual Growth Reduction (%) 14 Days After Application, CHEAL.
Setting [5] is: CIRAR: canada thistle (Cirsium arvense), read-out: Visual Growth Reduction (%) 14 Days After Application, CIRAR.
Setting [6] is: DIGSA: crabgrass (Digitaria sanguinalis), read-out: Visual Growth Reduction (%) 14 Days After Application, DIGSA.
[7] abbreviates: ECHCG: barnyardgrass (Echinochloa crus-galli), read-out: Visual Growth Reduction (%) 14 Days After Application, ECHCG.
Where [8] appears, read: IPOHE: ivy-leaf morning glory (Ipomoea hederacea), read-out: Visual Growth Reduction (%) 14 Days After Application, IPOHE.
Setting [9] is: KCHSC: kochia (Bassia scoparia), read-out: Visual Growth Reduction (%) 14 Days After Application, KCHSC.
The mark [10] stands for this setting: ORYSA: rice (Oryza sativa), read-out: Visual Growth Reduction (%) 14 Days After Application, ORYSA.
The mark [11] stands for this setting: SETFA: giant foxtail (Setaria faberi), read-out: Visual Growth Reduction (%) 14 Days After Application, SETFA.
Setting [12] is: SORVU: grain sorghum (Sorghum vulgare), read-out: Visual Growth Reduction (%) 14 Days After Application, SORVU.
The mark [13] stands for this setting: STEME: common chickweed (Stellaria media), read-out: Visual Growth Reduction (%) 14 Days After Application, STEME.
[14] abbreviates: TRZAS: wheat, spring (Triticum aestivum), read-out: Visual Growth Reduction (%) 14 Days After Application, TRZAS.
Where [15] appears, read: CYPES: yellow nutsedge (Cyperus esculentus), read-out: Visual Growth Reduction (%) 14 Days After Application, CYPES.

`O=C(O)c1nc(-c2cc3c(cc2Cl)OCO3)ccc1Cl` [F148, 3-Chloro-6-(6-chlorobenzo[d][1,3]dioxol-5-yl)picolinic acid]: the pest or weed control at 140 g/ha under setting [1] was 0 to 29%; the pest or weed control at 140 g/ha under setting [2] lay within 75 to 84%; the pest or weed control at 140 g/ha under setting [3] was in the range of 0 to 29%; the pest or weed control at 140 g/ha under setting [4] was in the range of 75 to 84%; the pest or weed control at 140 g/ha under setting [5] lay within 0 to 29%; the pest or weed control at 140 g/ha under setting [6] lay within 0 to 29%. The pest or weed control at 140 g/ha runs as follows: under setting [7], 0 to 29%; under setting [8], 30 to 44%; under setting [9], 0 to 29%; under setting [10], 0 to 29%; under setting [11], 0 to 29%; under setting [12], 0 to 29%. Moreover, the pest or weed control at 140 g/ha lay in the range of 0 to 29% under setting [13] and 0 to 29% under setting [14].

For the compound `COC(=O)c1nc(-c2ccc(Cl)c(N(C)C)c2)ccc1Cl` [F149, Methyl 3-chloro-6-(4-chloro-3-(dimethylamino)phenyl)picolinate], the pest or weed control at 140 g/ha was in the range of 0 to 29% under setting [1]; 75 to 84% under setting [2]; 0 to 29% under setting [3]; 95 to 100% under setting [4]; 60 to 74% under setting [5]; 0 to 29% under setting [15]. The pest or weed control at 140 g/ha under setting [6] was in the range of 0 to 29%; the pest or weed control at 140 g/ha under setting [7] is 0 to 29%; the pest or weed control at 140 g/ha under setting [8] was in the range of 30 to 44%; the pest or weed control at 140 g/ha under setting [9] was in the range of 75 to 84%; the pest or weed control at 140 g/ha under setting [10] lay within 0 to 29%; the pest or weed control at 140 g/ha under setting [11] was in the range of 0 to 29%. Also, the pest or weed control at 140 g/ha under setting [12] was in the range of 0 to 29%, the pest or weed control at 140 g/ha under setting [13] was 0 to 29% and the pest or weed control at 140 g/ha under setting [14] was 0 to 29%.

Turning to `COC(=O)c1nc(-c2cc3c(cc2Cl)OCO3)c(F)cc1Cl` [F150, Methyl 3-chloro-6-(6-chlorobenzo[d] [1,3]oxol-5-yl)-5-fluoropicolinate], the pest or weed control at 140 g/ha is, setting by setting: under setting [1], 0 to 29%; under setting [2], 75 to 84%; under setting [3], 0 to 29%; under setting [4], 75 to 84%; under setting [5], 85 to 94%; under setting [15], 0 to 29%. For the same compound, the pest or weed control at 140 g/ha under setting [6] is 0 to 29%; the pest or weed control at 140 g/ha under setting [7] was in the range of 0 to 29%; the pest or weed control at 140 g/ha under setting [8] lay within 85 to 94%; the pest or weed control at 140 g/ha under setting [9] fell in the range of 45 to 59%; the pest or weed control at 140 g/ha under setting [10] was in the range of 0 to 29%; the pest or weed control at 140 g/ha under setting [11] lay within 30 to 44%. Also, the pest or weed control at 140 g/ha is, setting by setting: under setting [12], 0 to 29%; under setting [13], 0 to 29%; under setting [14], 0 to 29%.

As to `COC(=O)c1nc(-c2cc(Br)c(C(F)(F)F)cc2Cl)ccc1Cl` [F151, Methyl 6-(5-bromo-2-chloro-4-(trifluoromethyl)phenyl)-3-chloropicolinate], the pest or weed control at 140 g/ha runs as follows: under setting [1], 0 to 29%; under setting [2], 95 to 100%; under setting [3], 0 to 29%; under setting [4], 95 to 100%; under setting [5], 45 to 59%; under setting [15], 0 to 29%. Also, the pest or weed control at 140 g/ha lay within 0 to 29% under setting [6]; 0 to 29% under setting [7]; 95 to 100% under setting [8]; 45 to 59% under setting [9]; 0 to 29% under setting [10]; 0 to 29% under setting [11]. Moreover, the pest or weed control at 140 g/ha by setting is: under setting [12], 95 to 100%; under setting [13], 0 to 29%; under setting [14], 0 to 29%.

As for `COC(=O)c1nc(-c2cc(Br)c(C(F)(F)F)cc2Cl)c(F)cc1Cl` [F152, Methyl 6-(5-bromo-2-chloro-4-(trifluoromethyl)phenyl)-3-chloro-5-fluoropicolinate], the pest or weed control at 140 g/ha runs as follows: under setting [1], 0 to 29%; under setting [2], 95 to 100%; under setting [3], 0 to 29%; under setting [4], 95 to 100%; under setting [5], 45 to 59%; under setting [15], 0 to 29%. Further, the pest or weed control at 140 g/ha was in the range of 60 to 74% under setting [6]; 0 to 29% under setting [7]; 95 to 100% under setting [8]; 85 to 94% under setting [9]; 0 to 29% under setting [10]; 0 to 29% under setting [11]. Besides, the pest or weed control at 140 g/ha reads like this: under setting [12], 95 to 100%; under setting [13], 0 to 29%; under setting [14], 0 to 29%.

On to `COC(=O)c1nc(-c2cc3c(cc2Cl)OC(F)(F)O3)c(F)cc1Cl` [F153, Methyl 3-chloro-6-(6-chloro-2,2-difluorobenzo[d] [1,3]dioxol-5-yl)-5-fluoropicolinate], for which the pest or weed control at 140 g/ha under setting [1] lay within 60 to 74%; the pest or weed control at 140 g/ha under setting [2] is 95 to 100%; the pest or weed control at 140 g/ha under setting [3] is 60 to 74%; the pest or weed control at 140 g/ha under setting [4] lay within 85 to 94%; the pest or weed control at 140 g/ha under setting [5] fell in the range of 85 to 94%; the pest or weed control at 140 g/ha under setting [15] lay in the range of 0 to 29%. In addition, the pest or weed control at 140 g/ha runs as follows: under setting [6], 85 to 94%; under setting [7], 75 to 84%; under setting [8], 95 to 100%; under setting [9], 85 to 94%; under setting [10], 0 to 29%; under setting [11], 85 to 94%. Besides, the pest or weed control at 140 g/ha is, setting by setting: under setting [12], 95 to 100%; under setting [13], 0 to 29%; under setting [14], 30 to 44%.

On to `COC(=O)c1nc(-c2cc3c(cc2Cl)OC(F)(F)O3)c(Cl)cc1Cl` [F154, Methyl 3,5-dichloro-6-(6-chloro-2,2-difluorobenzo[d] [1,3]dioxol-5-yl)picolinate], for which the pest or weed control at 140 g/ha reads like this: under setting [1], 0 to 29%; under setting [2], 85 to 94%; under setting [3], 0 to 29%; under setting [4], 85 to 94%; under setting [5], 0 to 29%; under setting [15], 0 to 29%. Moreover, the pest or weed control at 140 g/ha is, setting by setting: under setting [6], 60 to 74%; under setting [7], 0 to 29%; under setting [8], 95 to 100%; under setting [9], 0 to 29%; under setting [10], 0 to 29%; under setting [11], 45 to 59%. The pest or weed control at 140 g/ha lay in the range of 60 to 74% under setting [12], 0 to 29% under setting [13] and 0 to 29% under setting [14].

For the compound `COC(=O)c1nc(-c2cc3c(cc2Cl)OCO3)c(Cl)cc1Cl` [F155, Methyl 3,5-dichloro-6-(6-chlorobenzo[d] [1,3]dioxol-5-yl)picolinate], the pest or weed control at 140 g/ha under setting [1] lay in the range of 0 to 29%; the pest or weed control at 140 g/ha under setting [2] was in the range of 60 to 74%; the pest or weed control at 140 g/ha under setting [3] lay within 0 to 29%; the pest or weed control at 140 g/ha under setting [4] lay in the range of 75 to 84%; the pest or weed control at 140 g/ha under setting [5] lay in the range of 0 to 29%; the pest or weed control at 140 g/ha under setting [15] was in the range of 0 to 29%. Further, the pest or weed control at 140 g/ha is, setting by setting: under setting [6], 0 to 29%; under setting [7], 0 to 29%; under setting [8], 0 to 29%; under setting [9], 0 to 29%; under setting [10], 0 to 29%; under setting [11], 0 to 29%. Also, the pest or weed control at 140 g/ha under setting [12] is 0 to 29%, the pest or weed control at 140 g/ha under setting [13] lay within 0 to 29% and the pest or weed control at 140 g/ha under setting [14] lay in the range of 0 to 29%.
